Columns and labels:
D(3) dopamine receptor = D(3) dopamine receptor (Homo sapiens, UniProt P35462)
[1] = molecular target: Prostaglandin G/H synthase 1 (Homo sapiens, UniProt P23219); format: functional
[2] = molecular target: T1, Muscarinic acetylcholine receptor M1 (Homo sapiens, UniProt P11229); format: functional, cell-based
T1 sequence (P11229 whole entry): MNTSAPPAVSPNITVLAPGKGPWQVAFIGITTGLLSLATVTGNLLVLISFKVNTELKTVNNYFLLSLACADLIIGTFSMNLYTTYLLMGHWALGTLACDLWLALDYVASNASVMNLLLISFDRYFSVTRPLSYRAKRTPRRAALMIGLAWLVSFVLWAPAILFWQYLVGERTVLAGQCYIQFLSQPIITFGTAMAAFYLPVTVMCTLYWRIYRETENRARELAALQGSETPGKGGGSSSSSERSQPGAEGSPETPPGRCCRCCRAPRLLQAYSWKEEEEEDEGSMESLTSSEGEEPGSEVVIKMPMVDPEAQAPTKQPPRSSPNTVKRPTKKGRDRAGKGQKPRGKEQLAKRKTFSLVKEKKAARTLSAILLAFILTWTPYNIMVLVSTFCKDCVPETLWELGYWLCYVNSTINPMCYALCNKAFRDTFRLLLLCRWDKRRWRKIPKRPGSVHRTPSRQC

Mu-type opioid receptor [3] = molecular target: T2, Mu-type opioid receptor (Homo sapiens, UniProt P35372)
[4] = molecular target: T3, Sodium-dependent noradrenaline transporter (Homo sapiens, UniProt P23975)
[5] = molecular target: Kappa-type opioid receptor (Homo sapiens, UniProt P41145)
Histamine H3 receptor = Histamine H3 receptor (Homo sapiens, UniProt Q9Y5N1)
[6] = molecular target: T4, Alpha-2B adrenergic receptor (Homo sapiens, UniProt P18089)
T4 sequence (P18089 whole entry): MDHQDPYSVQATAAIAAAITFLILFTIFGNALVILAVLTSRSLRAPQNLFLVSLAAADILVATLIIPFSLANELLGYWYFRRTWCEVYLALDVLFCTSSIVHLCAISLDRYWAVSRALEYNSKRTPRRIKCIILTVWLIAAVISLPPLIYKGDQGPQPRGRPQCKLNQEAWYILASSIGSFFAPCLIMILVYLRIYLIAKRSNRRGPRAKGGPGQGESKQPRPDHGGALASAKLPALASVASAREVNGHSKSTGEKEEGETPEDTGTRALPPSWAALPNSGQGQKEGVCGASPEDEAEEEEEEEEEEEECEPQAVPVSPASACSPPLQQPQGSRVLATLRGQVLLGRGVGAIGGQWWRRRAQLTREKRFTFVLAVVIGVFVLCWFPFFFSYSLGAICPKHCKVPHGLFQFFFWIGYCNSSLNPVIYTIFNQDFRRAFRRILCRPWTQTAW

Mu-type opioid receptor [7] = molecular target: T2, Mu-type opioid receptor; remark: listed apart in the source
[8] = molecular target: Delta-type opioid receptor (Homo sapiens, UniProt P41143)
[9] = molecular target: T5, Cholecystokinin receptor type A (Homo sapiens, UniProt P32238)
T5 sequence (P32238 whole entry): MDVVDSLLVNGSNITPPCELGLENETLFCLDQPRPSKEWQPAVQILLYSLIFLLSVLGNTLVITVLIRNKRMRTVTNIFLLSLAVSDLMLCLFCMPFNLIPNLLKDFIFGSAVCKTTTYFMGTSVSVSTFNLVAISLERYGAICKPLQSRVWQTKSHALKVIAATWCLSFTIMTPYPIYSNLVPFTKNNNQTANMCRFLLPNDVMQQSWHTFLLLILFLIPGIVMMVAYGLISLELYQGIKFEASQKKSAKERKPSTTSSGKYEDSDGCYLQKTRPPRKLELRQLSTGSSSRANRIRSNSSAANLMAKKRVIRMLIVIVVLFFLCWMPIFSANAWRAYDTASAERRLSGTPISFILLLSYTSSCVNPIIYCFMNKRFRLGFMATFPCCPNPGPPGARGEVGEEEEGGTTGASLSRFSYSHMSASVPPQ

[10] = molecular target: T3, Sodium-dependent noradrenaline transporter; remark: listed apart in the source
[11] = molecular target: T6, Type-1 angiotensin II receptor (Homo sapiens, UniProt P30556)
T6 sequence (P30556 whole entry): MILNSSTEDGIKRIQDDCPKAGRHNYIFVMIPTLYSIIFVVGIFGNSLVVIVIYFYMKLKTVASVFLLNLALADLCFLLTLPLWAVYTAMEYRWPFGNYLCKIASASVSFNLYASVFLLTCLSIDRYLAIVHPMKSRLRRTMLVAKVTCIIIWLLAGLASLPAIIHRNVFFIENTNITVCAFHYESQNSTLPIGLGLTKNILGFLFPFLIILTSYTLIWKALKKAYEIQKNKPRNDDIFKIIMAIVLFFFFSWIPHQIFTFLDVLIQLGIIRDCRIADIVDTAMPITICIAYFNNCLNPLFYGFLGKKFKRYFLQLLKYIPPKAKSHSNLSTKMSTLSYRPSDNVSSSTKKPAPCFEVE

[12] = molecular target: Growth hormone secretagogue receptor type 1 (Homo sapiens, UniProt Q92847)
[13] = molecular target: Glutamate receptor ionotropic, NMDA 1 (Rattus norvegicus, UniProt P35439)
Mu-type opioid receptor [14] = molecular target: T2, Mu-type opioid receptor; assay: biochemical; format: functional
[15] = molecular target: T7, Alpha-1A adrenergic receptor (Homo sapiens, UniProt P35348); format: functional, cell-based
T7 sequence (P35348 whole entry): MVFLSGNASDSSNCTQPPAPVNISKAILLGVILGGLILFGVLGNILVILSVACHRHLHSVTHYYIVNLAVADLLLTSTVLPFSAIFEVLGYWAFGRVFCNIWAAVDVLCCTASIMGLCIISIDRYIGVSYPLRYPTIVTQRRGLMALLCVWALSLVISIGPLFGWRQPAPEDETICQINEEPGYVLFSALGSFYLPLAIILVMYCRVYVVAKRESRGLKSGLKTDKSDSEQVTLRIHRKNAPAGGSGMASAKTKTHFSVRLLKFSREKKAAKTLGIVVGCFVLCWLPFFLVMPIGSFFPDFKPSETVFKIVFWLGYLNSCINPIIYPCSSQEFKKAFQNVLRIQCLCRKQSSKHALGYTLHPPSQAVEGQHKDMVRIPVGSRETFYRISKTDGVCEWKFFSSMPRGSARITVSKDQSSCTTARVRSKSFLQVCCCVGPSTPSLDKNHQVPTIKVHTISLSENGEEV

Measured: AC50
Further: assay procedure not described here.

T3 sequence (P23975 whole entry): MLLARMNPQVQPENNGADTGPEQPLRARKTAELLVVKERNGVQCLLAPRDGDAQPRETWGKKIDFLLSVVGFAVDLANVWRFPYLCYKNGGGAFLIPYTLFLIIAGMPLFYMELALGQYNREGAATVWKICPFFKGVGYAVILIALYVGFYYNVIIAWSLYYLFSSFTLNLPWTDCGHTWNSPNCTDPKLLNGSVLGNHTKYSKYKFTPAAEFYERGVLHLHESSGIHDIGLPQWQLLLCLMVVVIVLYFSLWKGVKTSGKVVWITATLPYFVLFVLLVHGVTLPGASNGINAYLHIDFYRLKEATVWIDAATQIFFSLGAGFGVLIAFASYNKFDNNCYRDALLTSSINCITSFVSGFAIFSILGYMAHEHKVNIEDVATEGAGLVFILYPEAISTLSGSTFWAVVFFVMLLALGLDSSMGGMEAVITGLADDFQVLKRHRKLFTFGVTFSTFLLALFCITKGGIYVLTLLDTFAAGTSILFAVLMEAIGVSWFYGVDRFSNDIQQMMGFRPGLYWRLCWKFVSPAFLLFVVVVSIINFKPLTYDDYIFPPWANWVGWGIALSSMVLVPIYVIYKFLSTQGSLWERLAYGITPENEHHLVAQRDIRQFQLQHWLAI
Sequence of Delta-type opioid receptor (P41143 whole entry): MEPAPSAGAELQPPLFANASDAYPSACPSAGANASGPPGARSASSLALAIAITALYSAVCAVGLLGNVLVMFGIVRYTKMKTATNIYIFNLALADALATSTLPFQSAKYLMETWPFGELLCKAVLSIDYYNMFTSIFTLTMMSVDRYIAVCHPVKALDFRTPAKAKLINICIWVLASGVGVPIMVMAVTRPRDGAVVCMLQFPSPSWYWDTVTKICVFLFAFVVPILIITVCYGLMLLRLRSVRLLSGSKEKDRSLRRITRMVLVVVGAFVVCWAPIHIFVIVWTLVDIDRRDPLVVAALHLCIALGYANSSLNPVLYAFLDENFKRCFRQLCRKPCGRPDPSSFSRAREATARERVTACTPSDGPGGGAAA
Sequence of D(3) dopamine receptor (P35462 whole entry): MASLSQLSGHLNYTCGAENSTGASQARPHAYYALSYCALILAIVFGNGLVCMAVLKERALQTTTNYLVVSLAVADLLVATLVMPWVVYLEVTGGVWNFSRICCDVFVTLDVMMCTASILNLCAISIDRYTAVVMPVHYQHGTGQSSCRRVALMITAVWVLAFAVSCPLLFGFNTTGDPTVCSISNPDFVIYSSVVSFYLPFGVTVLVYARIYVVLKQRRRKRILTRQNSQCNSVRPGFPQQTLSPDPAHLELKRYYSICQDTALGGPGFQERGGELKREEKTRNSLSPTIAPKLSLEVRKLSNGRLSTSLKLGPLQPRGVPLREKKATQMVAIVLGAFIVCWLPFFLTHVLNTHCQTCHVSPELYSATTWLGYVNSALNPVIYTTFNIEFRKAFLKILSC
Sequence of Growth hormone secretagogue receptor type 1 (Q92847 whole entry): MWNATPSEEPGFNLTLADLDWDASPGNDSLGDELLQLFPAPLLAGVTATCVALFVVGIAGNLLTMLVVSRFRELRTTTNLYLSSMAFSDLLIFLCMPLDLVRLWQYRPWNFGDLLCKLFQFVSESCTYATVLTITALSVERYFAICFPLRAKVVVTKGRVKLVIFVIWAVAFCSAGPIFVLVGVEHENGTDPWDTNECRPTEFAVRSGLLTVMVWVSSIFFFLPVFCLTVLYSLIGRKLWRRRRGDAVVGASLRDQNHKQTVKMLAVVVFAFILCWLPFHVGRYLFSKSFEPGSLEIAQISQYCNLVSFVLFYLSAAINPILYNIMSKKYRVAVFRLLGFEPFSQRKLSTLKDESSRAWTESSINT
Sequence of Prostaglandin G/H synthase 1 (P23219 whole entry): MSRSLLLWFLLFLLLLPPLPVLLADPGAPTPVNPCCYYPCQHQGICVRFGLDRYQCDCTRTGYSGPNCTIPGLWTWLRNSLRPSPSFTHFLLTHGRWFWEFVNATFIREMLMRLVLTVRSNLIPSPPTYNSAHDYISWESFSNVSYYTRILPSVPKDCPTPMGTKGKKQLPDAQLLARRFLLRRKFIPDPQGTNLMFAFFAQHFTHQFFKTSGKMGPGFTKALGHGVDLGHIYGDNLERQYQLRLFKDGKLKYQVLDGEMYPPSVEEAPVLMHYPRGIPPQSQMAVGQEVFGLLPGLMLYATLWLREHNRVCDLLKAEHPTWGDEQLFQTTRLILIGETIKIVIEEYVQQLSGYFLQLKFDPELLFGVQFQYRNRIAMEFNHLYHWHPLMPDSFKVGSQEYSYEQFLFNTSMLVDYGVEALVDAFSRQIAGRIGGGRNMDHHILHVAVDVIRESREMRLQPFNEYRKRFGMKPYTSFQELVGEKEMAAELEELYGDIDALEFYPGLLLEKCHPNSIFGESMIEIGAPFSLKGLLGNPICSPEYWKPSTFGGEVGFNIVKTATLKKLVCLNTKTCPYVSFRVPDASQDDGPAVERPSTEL
Sequence of Histamine H3 receptor (Q9Y5N1 whole entry): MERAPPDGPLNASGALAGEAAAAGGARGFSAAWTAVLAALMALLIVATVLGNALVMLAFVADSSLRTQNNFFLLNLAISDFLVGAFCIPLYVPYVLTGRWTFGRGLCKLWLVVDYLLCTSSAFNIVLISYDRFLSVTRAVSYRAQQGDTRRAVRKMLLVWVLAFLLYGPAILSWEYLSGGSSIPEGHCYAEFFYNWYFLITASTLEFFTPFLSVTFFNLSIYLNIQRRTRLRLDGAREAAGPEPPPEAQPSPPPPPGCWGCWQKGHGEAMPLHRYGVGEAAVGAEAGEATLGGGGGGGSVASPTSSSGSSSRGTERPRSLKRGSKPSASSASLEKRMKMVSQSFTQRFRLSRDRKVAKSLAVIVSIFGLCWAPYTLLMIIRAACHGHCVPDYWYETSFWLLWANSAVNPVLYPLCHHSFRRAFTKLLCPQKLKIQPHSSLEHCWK
Sequence of Kappa-type opioid receptor (P41145 whole entry): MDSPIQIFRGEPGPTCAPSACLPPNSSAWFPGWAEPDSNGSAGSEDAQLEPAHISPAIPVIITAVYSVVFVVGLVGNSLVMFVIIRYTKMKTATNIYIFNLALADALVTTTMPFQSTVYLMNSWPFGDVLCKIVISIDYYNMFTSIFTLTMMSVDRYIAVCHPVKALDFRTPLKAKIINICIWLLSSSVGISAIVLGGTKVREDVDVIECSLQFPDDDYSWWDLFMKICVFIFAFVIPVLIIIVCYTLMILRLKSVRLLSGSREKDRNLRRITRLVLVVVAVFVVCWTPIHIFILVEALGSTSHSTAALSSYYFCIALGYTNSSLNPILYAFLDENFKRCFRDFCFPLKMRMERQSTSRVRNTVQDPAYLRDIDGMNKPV
T2 sequence (P35372 whole entry): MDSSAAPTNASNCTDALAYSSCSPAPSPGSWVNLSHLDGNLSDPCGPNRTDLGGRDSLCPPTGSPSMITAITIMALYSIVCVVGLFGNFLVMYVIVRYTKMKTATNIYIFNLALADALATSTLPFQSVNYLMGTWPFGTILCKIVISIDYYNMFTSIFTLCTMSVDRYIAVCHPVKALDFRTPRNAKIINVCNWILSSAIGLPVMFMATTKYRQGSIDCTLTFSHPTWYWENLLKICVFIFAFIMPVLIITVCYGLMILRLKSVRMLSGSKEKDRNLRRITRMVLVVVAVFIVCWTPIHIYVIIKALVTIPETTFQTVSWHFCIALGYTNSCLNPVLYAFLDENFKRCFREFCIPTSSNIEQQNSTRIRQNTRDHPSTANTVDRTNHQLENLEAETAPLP

Cc1cc2c(cc1S(N)(=O)=O)S(=O)(=O)CCC2
> 30 µM: D(3) dopamine receptor | [1] | [2] | Mu-type opioid receptor [3] | [4]

C[C@H](N[C@@H](CCc1ccccc1)C(=O)O)C(=O)N1Cc2ccccc2C[C@H]1C(=O)O
> 30 µM: D(3) dopamine receptor | [1] | [2] | Mu-type opioid receptor [3] | [4]

O=C(O)[C@@H]1C[C@@H](O)CN1
> 10 µM: Mu-type opioid receptor [3]
> 30 µM: [1] | [2] | [4]

Cc1ccccc1-n1c(CF)nc2ccc(N)cc2c1=O [AFLOQUALONE]
> 10 µM: [5] | [6] | [13]
> 30 µM: Histamine H3 receptor | Mu-type opioid receptor [7] | [8] | [9] | [10] | [11] | [12] | Mu-type opioid receptor [14]

CC1(C)S[C@@H]2[C@H](/N=C/N3CCCCCC3)C(=O)N2[C@H]1C(=O)O [AMDINOCILLIN]
> 30 µM: D(3) dopamine receptor | [1] | [2] | Mu-type opioid receptor [3] | [4]

CC(=O)[C@]1(N)Cc2c(O)c3c(c(O)c2[C@@H](O[C@H]2C[C@H](O)[C@H](O)CO2)C1)C(=O)c1ccccc1C3=O [AMRUBICIN]
2.81 µM: [1]
18.4 µM: [2]
> 30 µM: D(3) dopamine receptor | Mu-type opioid receptor [3] | [4]

NC(=O)[C@@H]1CC[C@@H]2CN1C(=O)N2OS(=O)(=O)O [AVIBACTAM]
> 30 µM: D(3) dopamine receptor | [1] | [2] | Mu-type opioid receptor [3] | [4]

CC(C)(C)NC(=O)N[C@H](C(=O)N1C[C@H]2[C@@H]([C@H]1C(=O)NC(CC1CCC1)C(=O)C(N)=O)C2(C)C)C(C)(C)C (stereo not given in full) [BOCEPREVIR]
> 30 µM: D(3) dopamine receptor | [1] | [2] | Mu-type opioid receptor [3] | [4]

Cc1ncc2c(c1O)COC2c1ccc(Cl)cc1 (stereo not given) [CICLETANINE]
> 30 µM: D(3) dopamine receptor | [1] | [2] | Mu-type opioid receptor [3] | [4]

Cc1cn([C@H]2O[C@@H](CO)[C@H](O)[C@H]2F)c(=O)[nH]c1=O [CLEVUDINE]
> 30 µM: D(3) dopamine receptor | [1] | [2] | Mu-type opioid receptor [3] | [4]

N#Cc1ccc(Oc2ccc3c(c2)COB3O)cc1 [CRISABOROLE]
> 30 µM: D(3) dopamine receptor | [1] | [2] | Mu-type opioid receptor [3] | [4]

C/C=C(/C(=C/C)c1ccc(O)cc1)c1ccc(O)cc1 [DIENESTROL]
21 µM: [8]
> 10 µM: [5] | [6] | [9] | [11] | [12] | [13]
> 30 µM: Mu-type opioid receptor [7] | [10] | Mu-type opioid receptor [14]

CC(=O)[C@H]1CC[C@H]2[C@@H]3C=CC4=CC(=O)CC[C@@]4(C)[C@@H]3CC[C@]12C [DYDROGESTERONE]
> 30 µM: D(3) dopamine receptor | [1] | [2] | Mu-type opioid receptor [3] | [4]

CC(=O)O[C@H]1Cc2ccccc2N(C(N)=O)c2ccccc21 [ESLICARBAZEPINE ACETATE]
> 30 µM: D(3) dopamine receptor | [1] | [2] | Mu-type opioid receptor [3] | [4]

Cc1ccc(S(=O)(=O)NC(=O)NC2CCCCC2)cc1 [GLYCYCLAMIDE]
> 30 µM: D(3) dopamine receptor | [1] | [2] | Mu-type opioid receptor [3] | [4]

COc1ccc([C@@H]2CC(=O)c3c(O)cc(O)cc3O2)cc1O [HESPERETIN]
> 10 µM: [5] | [6] | [9] | [10] | [11] | [12] | [13]
> 30 µM: Mu-type opioid receptor [7] | [8] | Mu-type opioid receptor [14]

CN1CCCN(C(c2ccccc2)c2ccc(Cl)cc2)CC1 (stereo not given) [HOMOCHLORCYCLIZINE]
12.9 µM: [4]
> 30 µM: [1] | [2]
0.0721 µM: D(3) dopamine receptor
7.4 µM: Mu-type opioid receptor [3]

CC(=O)OCC(=O)[C@@]1(O)CC[C@H]2[C@@H]3CCC4=CC(=O)CC[C@]4(C)[C@H]3[C@@H](O)C[C@@]21C [HYDROCORTISONE ACETATE]
> 30 µM: [1] | [2] | Mu-type opioid receptor [3] | [4]

CN(C)CCCN1c2ccccc2CCc2ccccc21 [IMIPRAMINE]
0.32 µM: [6]
> 10 µM: Histamine H3 receptor | [8]
> 30 µM: [9] | [11] | [12]
0.41 µM: [15]
8.1 µM: Mu-type opioid receptor [7]
28 µM: Mu-type opioid receptor [14]

CC(COc1ccccc1)NC(C)C(O)c1ccc(O)cc1 (stereo not given) [ISOXSUPRINE]
> 30 µM: [1] | [2]
11.2 µM: [4]
0.037 µM: D(3) dopamine receptor
8.69 µM: Mu-type opioid receptor [3]

O=C(CCC/C=C\C[C@@H]1[C@@H](CC[C@@H](O)CCc2ccccc2)[C@H](O)C[C@@H]1O)OCCCCO[N+](=O)[O-] [LATANOPROSTENE BUNOD]
13.5 µM: [1]
> 30 µM: D(3) dopamine receptor | [2] | Mu-type opioid receptor [3] | [4]

CN[C@@H](C)[C@@H](O)c1ccccc1 [PSEUDOEPHEDRINE]
> 30 µM: Mu-type opioid receptor [7] | [8] | [9] | [11] | [12] | Mu-type opioid receptor [14]
> 10 µM: [5] | Histamine H3 receptor | [6] | [10] | [13]

C[C@]12C=CC(=O)C=C1CC[C@@H]1[C@@H]2CC[C@]2(C)OC(=O)CC[C@@H]12 [TESTOLACTONE]
> 30 µM: [15] | Mu-type opioid receptor [7] | [8] | Mu-type opioid receptor [14]
> 10 µM: [5] | [6] | [9] | [10] | [11] | [12] | [13]
